According to patent publication US7994198B2, “Piperidinetriol derivatives as inhibitors of glycosylceramidsynthase” (Actelion Pharmaceuticals Ltd., priority 2002, dated 2011):
Read-outs that look alike come from different tables or passages of the source.

Legend:
[1] = molecular target: T1, non-lysosomal-β-glucocerebrosidase (Homo sapiens, UniProt Q9HCG7); test: Inhibition of non-lysosomal-β-glucocerebrosidase (whole cell extracts of MCF7); format: biochemical
T1 construct: endogenous in cells; host or cells: MCF7 whole cell extracts
T1 sequence (Q9HCG7 1-927): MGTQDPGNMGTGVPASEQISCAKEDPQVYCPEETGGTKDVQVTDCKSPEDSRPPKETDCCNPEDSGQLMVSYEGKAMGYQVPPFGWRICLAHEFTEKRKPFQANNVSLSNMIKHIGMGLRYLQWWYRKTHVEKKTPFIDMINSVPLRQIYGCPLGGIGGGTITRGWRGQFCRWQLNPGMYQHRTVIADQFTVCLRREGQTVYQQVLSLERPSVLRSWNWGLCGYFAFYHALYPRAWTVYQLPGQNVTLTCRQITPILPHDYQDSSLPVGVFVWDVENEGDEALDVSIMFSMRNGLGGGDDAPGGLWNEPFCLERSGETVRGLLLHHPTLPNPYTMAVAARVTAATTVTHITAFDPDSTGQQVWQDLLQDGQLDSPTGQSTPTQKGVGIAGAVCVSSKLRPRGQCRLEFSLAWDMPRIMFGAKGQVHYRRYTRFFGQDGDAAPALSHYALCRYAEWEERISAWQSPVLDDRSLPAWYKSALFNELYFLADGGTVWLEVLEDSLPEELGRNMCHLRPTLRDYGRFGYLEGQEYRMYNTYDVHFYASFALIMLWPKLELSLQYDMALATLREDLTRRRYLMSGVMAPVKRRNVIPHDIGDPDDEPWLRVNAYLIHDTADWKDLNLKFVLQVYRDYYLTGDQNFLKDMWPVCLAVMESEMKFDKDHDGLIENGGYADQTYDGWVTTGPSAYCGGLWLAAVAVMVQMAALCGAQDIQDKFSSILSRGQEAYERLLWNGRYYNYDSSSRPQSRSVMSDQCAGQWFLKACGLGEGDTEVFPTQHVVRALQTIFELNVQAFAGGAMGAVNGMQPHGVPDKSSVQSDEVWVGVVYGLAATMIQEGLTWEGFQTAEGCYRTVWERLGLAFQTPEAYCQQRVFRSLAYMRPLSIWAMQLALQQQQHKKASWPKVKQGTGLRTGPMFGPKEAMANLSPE
Method: The assay for inhibition of non-lysosomal-β-glucocerebrosidase was essentially carried out as described in Overkleeft, H. S. et al., J. Biol. Chem., (1998) 273, 26522-26527 with the following differences: whole cell extracts of MCF7 (a human breast carcinoma cell line) was used as the source of the enzyme instead of splenic membrane suspensions; 5mM instead of 3Mm, 4-MU β-glucoside was used as substrate and 0.2M citrate/phosphate (pH 5.8) was used instead of McIlvaine buffer.

[2] = molecular target: T2, human GCS (Homo sapiens, UniProt Q16739); test: Inhibition of GCS (human recombinant GCS expressed in insect cells); format: biochemical; parameters: made in house; host or cells: insect cells
T2 sequence (Q16739 1-394): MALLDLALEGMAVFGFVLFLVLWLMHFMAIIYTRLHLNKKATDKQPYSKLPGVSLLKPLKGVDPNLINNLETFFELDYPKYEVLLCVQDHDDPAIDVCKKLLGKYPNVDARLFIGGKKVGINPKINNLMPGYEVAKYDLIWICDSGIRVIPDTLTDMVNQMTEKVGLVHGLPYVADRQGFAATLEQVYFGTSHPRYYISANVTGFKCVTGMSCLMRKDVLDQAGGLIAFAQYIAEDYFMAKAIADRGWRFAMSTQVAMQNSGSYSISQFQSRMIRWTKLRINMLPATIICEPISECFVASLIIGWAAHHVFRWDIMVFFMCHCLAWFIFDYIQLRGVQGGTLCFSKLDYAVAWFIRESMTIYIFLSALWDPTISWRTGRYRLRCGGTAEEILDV

[3] = molecular target: T2, human GCS; test: Cell-based IC50 for GCS inhibition by measuring glucosylceramide (GlcCer) depletion in MCF-7 cells; conditions: MCF-7 cells cultured 5-7 days; GlcCer depletion by HPTLC; read-out: Inhibition of GCS Cellular-based (IC50 μM)
[4] = tested on: glycolipid biosynthesis; conditions: as disclosed in EP-A-0698012; cited from earlier work

IC50 [2] [µM] | IC50 [1] [µM] | SMILES | Inhibition of glycolipid biosynthesis [4] | also measured
0.66 | 9.4 | OC[C@H]1[C@H](O)[C@H](O)[C@@H](O)CN1Cc1ccc(OCc2ccccc2)cc1 [Example 2, 3,4,5-Piperidinetriol, 2-(hydroxymethyl)-1-[[4-(phenylmethoxy)phenyl]methyl]-, (2S,3S,4R,5S)] |  | IC50 [3]: < 0.1 µM
 |  | CCCCN1C[C@@H](O)[C@@H](O)[C@H](O)[C@H]1CO [NB-DMJ] | do not act as inhibitors of glycolipid biosynthesis | 
 |  | C[C@@H](NC(=O)c1ccc(CN2C[C@H](O)[C@@H](O)[C@@H](O)[C@@H]2CO)cc1)c1ccccc1 [Example 6, Benzamide, N-[1-(R)-(phenyl)ethyl]4-[[(2S,3S,4R,5S)-3,4,5-trihydroxy-2-(hydroxymethyl)-1-piperidinyl]methyl]-,] |  | IC50 [3]: 1 µM
 |  | CCCCN1C[C@H](NC(C)=O)[C@@H](O)[C@H](O)[C@H]1CO [NB-NAG] | do not act as inhibitors of glycolipid biosynthesis | 
 |  | CCCCN1C[C@@H](O)[C@H](O)[C@H](O)[C@@H]1C [NB-DFJ] | do not act as inhibitors of glycolipid biosynthesis | 
2.2 |  | O=C(NCc1ccc(F)cc1)c1ccc(CN2C[C@H](O)[C@@H](O)[C@@H](O)[C@@H]2CO)cc1 [Example 1, Benzamide, N-[(4-fluorophenyl)methyl]4-[[(2S,3S,4R,5S)-3,4,5-trihydroxy-2-(hydroxymethyl)-1-piperidinyl]methyl]-,] |  | 
4.7 | > 100 | C[C@@H](NC(=O)c1ccc(CN2C[C@H](O)[C@@H](O)[C@@H](O)[C@@H]2CO)cc1)c1ccc(F)cc1 [Example 7, Benzamide, N-[1-(R)-(4-fluorophenyl)ethyl]-4-[[(2S,3S,4R,5S)-3,4,5-trihydroxy-2-(hydroxymethyl)-1-piperidinyl]methyl]-,] |  | 
7.2 | 14.9 | C[C@H](NC(=O)c1ccc(CN2C[C@H](O)[C@@H](O)[C@@H](O)[C@@H]2CO)cc1)c1ccccc1 [Example 3, Benzamide, N-[1-(S)-(phenyl)ethyl]-4-[[(2S,3S,4R,5S)-3,4,5-trihydroxy-2-(hydroxymethyl)-1-piperidinyl]methyl]-,] |  | 

SMILES | IC50 [2] [µM] | IC50 [1] [µM] | Inhibition of glycolipid biosynthesis [4] | also measured
CCCN(CCC)c1ccc(CN2C[C@H](O)[C@@H](O)[C@@H](O)[C@@H]2CO)cc1C#N [Example 4, 3,4,5-Piperidinetriol, 1-[(3-cyano-4-(dipropylamino)phenyl)methyl]-2-(hydroxymethyl), (2S,3S,4R,5S)] | 0.62 |  |  | IC50 ([1]; MCF7 whole cell extract, 5mM 4-MU β-glucoside, citrate/phosphate pH 5.8, read-out: Inhibition of non-lysosomal-β-glucocerebrosidase (IC50 μM)): 1.93 µM
